Molecules are shown by their SMILES.

One molecule from PMC6934498, “Neferine induces autophagy-dependent cell death in apoptosis-resistant cancers via ryanodine receptor and Ca^2+-dependent mechanism” (Scientific Reports, 2019) can be followed below.

The target in the assay is T1, SERCA1A (sarcoplasmic/endoplasmic reticulum Ca2+ ATPase) (Oryctolagus cuniculus, UniProt P04191).
T1 construct: gene ATP2A1; purified rabbit skeletal muscle SR membranes expressing the SERCA1A isoform
Put plainly: coupled-enzyme ATPase assay on purified SERCA1A from rabbit skeletal muscle. The format is biochemical.

T1 sequence (P04191 1-993): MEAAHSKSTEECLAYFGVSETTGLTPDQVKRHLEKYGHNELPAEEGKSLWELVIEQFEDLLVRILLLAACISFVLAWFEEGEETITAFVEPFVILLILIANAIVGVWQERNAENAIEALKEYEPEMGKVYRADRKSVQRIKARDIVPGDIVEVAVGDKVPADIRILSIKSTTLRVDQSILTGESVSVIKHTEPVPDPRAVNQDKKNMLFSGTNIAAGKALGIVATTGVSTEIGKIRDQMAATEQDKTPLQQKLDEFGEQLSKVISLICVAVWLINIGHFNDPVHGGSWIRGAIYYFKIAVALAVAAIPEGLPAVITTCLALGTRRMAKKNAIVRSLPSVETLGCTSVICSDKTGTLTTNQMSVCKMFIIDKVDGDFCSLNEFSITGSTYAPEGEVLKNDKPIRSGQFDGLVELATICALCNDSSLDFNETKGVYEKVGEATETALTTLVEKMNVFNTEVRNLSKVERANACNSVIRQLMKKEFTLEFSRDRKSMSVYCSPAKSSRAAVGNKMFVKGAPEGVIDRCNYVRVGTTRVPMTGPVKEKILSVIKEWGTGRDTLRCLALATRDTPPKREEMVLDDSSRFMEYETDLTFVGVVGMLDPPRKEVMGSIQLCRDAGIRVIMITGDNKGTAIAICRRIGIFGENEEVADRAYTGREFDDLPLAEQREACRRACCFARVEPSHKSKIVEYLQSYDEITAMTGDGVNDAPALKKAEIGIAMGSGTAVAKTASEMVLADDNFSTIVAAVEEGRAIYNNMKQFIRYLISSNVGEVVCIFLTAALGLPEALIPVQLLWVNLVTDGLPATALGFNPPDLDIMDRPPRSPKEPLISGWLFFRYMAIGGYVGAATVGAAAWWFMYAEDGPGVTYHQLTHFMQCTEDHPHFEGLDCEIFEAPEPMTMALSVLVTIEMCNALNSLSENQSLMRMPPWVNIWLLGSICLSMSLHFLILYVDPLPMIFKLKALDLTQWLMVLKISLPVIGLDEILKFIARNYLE

In turn, `COc1ccc(C[C@@H]2c3cc(Oc4cc(C[C@@H]5c6cc(OC)c(OC)cc6CCN5C)ccc4O)c(OC)cc3CCN2C)cc1` [neferine] returned an IC50 of 320 ± 70 µM.
